Results as given in ChEMBL document CHEMBL1150170, “An antiplasmodial lignan from Euterpe precatoria” (J Nat Prod, 2002).
pIC50: −log10 of the molar value.

Tested on: Plasmodium falciparum
Test: Antiplasmodial activity against chloroquine-sensitive Plasmodium falciparum 3D7 by [3H]phenylalanine uptake
Assay type: functional, organism-based

SMILES: COc1cc([C@@H]2Oc3c(OC)cc(/C=C/COC(=O)c4ccccc4)cc3[C@H]2COC(=O)c2ccccc2)ccc1O (racemic) [DEHYDRODICONIFERYL ALCOHOL DIBENZOATE]
- pIC50: 4.92
